Experimental data taken from patent publication US20080319065A1, “Systemic and Intrathecal Effects of a Novel Series of Phospholipase A2 Inhibitors on Hyperalgesia and Spinal Pge2 Release” (The Regents of the University of California, priority 2005, published 2008).

Tests used:
[1] = tested on: murine RAW 264.7 macrophage-like cell line; experiment: Long-term LPS stimulation, PGE2 release; format: cell-based
Description: Several 2-oxoamides were tested in the long-term lipopolysaccharide (LPS) stimulation pathway in the murine RAW 264.7 macrophage-like cell line. (Raschke, et al., Cell, 1978, 15, 261-267). This pathway requires GIVA PLA2 activity and results in the extracellular release of many eicosanoid compounds including the prostaglandin PGE2. (Gijon, et al., leukoc. Biol., 1999, 65, 330-336). […] In the low μM range, AX041 and AX073 reduced PGE2 release by roughly 40% (FIG. 1(D)). At 1 μM and 5 μM concentrations, small activations were often seen. The in vitro and cellular results together are consistent with the known roles of GVIA PLA2 given that AX010, a selective GVIA inhibitor, had no cellular effect. […] Inhibitors selective for GIVA PLA2 or dual specificity inhibitors reduce PGE2 levels, also consistent with the known role of GIVA PLA2 in PGE2 production.

spinal release of PGE2 = experiment: Intrathecal dialysis and PGE2 assay; format: in vivo, rat; conditions: 3 mg/kg IP pretreatment
From the text: For spinal drug injections, lumbar catheters were implanted in rats under isoflurane anesthesia according to a modification of the procedure described by Yaksh (Yaksh and Rudy, supra, 1976). A polyethylene catheter (PE-5; Spectranetics, 0.014 in OD) was inserted into the intrathecal space and advanced to the rostral edge of the lumbar enlargement through an incision in the atlanto-occipital membrane. Five days after implantation rats were entered into the study. In separate experiments to assess spinal prostaglandins release, rats were prepared with lumbar loop dialysis catheters with three lumens, as previously described, see (Yaksh, et al., supra, 2001).
In brief, the outer two lumens were connected to a length of dialysis tubing (10 Kda cut off). The catheter was then implanted intrathecally using the same technique as described above for the intrathecal catheter. A three-day interval was allowed to elapse prior to including the animal in a study. In all cases, the exclusion criteria were i) presence of any neurological sequelae, ii) 20% weight loss after implantation, or iii) catheter occlusion.
Spinal dialysis experiments to define the spinal release of PGE2 were conducted in unanesthetized rats 3 days after dialysis catheter implantation. A syringe pump (Harvard, Natick, Mass.) was connected and dialysis tubing was perfused with artificial cerebro spinal fluid (ACSF) at a rate of 10 μl/min. The ACSF contained (mM) 151.1 Na^+, 2.6 K^+, 0.9 Mg^2+, 1.3 Ca^2+, 122.7 Cl^−, 21.0 HCO3, 2.5 HPO4 and 3.5 dextrose and was bubbled with 95% O2/5% CO2 before each experiment to adjust the final pH to 7.2. The efflux (20 min per fraction) was collected in an automatic fraction collector (Eicom, Kyoto, Japan) at 4° C. […] The concentration of PGE2 in spinal dialysate was measured by ELISA using a commercially available kit (Assay Designs 90001, Assay Designs, Ann Arbor, Mich.). The antibody is selective for PGE2 with less than 2.0% cross-reactivity to PGF1, PGF2, 6-ketoPGF1, PGA2 or PGB2, but cross-reacts with PGE1 and PGE3.

[2] = tested on: carrageenan-induced thermal hyperalgesia; experiment: Carrageenan-induced thermal hyperalgesia, paw withdrawal latency; format: in vivo, rat
From the text: Male Holtzman Sprague-Dawley rats (300-350 g; Harlan Industries) were individually housed and maintained on a 12-hr light/dark cycle with free access to food and water. For spinal drug injections, lumbar catheters were implanted in rats under isoflurane anesthesia according to a modification of the procedure described by Yaksh (Yaksh and Rudy, supra, 1976). A polyethylene catheter (PE-5; Spectranetics, 0.014 in OD) was inserted into the intrathecal space and advanced to the rostral edge of the lumbar enlargement through an incision in the atlanto-occipital membrane. Five days after implantation rats were entered into the study. In separate experiments to assess spinal prostaglandins release, rats were prepared with lumbar loop dialysis catheters with three lumens, as previously described, see (Yaksh, et al., supra, 2001). Thermal hyperalgesia. Two approaches were employed to initiate a hyperalgesic state. An inflammation-evoked thermal hyperalgesia was induced by subcutaneous injection of 2 mg of carrageenan (Sigma, St. Louis, Mo., 100 μl of […] solution (w/v) in physiological saline) into the plantar surface of the left hind paw. To assess the thermally-evoked paw-withdrawal response, a commercially available device modeled after that described by Hargreaves and colleagues (Hargreaves, Pain, 32:77-88, 1988) was used (see, Dirig and Yaksh, Neurosci. Lett., 220:93-96, 1996; Dirig, et al., J. Neurosci. Methods, 76:183-191, 1997). In brief, the device consisted of a glass surface (maintained at 25° C.) on which the rats are placed individually in Plexiglas cubicles (9×22×25 cm). The thermal nociceptive stimulus originated from a focused projection bulb positioned below the glass surface. The stimulus was delivered separately to either hind paw of each test subject with the aid of an angled mirror mounted on the stimulus source. A timer was actuated with the light source, and latency was defined as the time required for the paw to show a brisk withdrawal as detected by photodiode motion sensors that stop the timer and terminate the stimulus. Paw withdrawal latencies (PWL) were assessed prior to any treatment (control) and at intervals after treatment. Left (injured) and right (uninjured) paw withdrawal latencies were assessed and plotted versus time. In addition, difference latency scores (uninjured-injured) were calculated and the average withdrawal latency over the post-injection observation intervals are calculated for comparison between treatment groups. Drugs were delivered systemically (IP) or spinally (IT). Intraperitoneal drugs were delivered uniformly in doses prepared in volumes of 0.5 ml/kg. Drugs injected IT were administered in a total volume of […] followed by a 10 μl flush using vehicle.

GV sPLA2 = target: T1, GV sPLA2 (Homo sapiens, UniProt P39877); experiment: GV sPLA2 activity assay; format: biochemical; conditions: at 0.091 mole fraction
T1 sequence (P39877 21-138): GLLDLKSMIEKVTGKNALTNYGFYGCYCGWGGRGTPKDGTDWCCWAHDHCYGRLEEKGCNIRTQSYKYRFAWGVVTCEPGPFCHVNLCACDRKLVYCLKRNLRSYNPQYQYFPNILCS

Compound | inhibition of PGE2 release, in words [1] | IT SP-evoked release of PGE2 in spinal dialysate (spinal release of PGE2) | antihyperalgesic effect by pretreatment interval ([2]; 3 mg/kg IP, 15 min before carrageenan) | antihyperalgesic effect by pretreatment interval ([2]; 3 mg/kg IP, 30 min before carrageenan) | reduction of carrageenan thermal hyperalgesia ([2]; 3 mg/kg IP, 30 min pretreatment) | antihyperalgesic effect by pretreatment interval ([2]; 3 mg/kg IP, 180 min before carrageenan) | antihyperalgesic effect by pretreatment interval ([2]; 3 mg/kg IP, 360 min before carrageenan) | dose dependency of anti-hyperalgesic effect ([2]; IP, 0.2-3 mg/kg) | ED50 ([2]; Rattus norvegicus, IP, carrageenan thermal hyperalgesia, read-out: IP ED50, dose that reduced the hyperalgesia by 50%) [mg/kg] | attenuation of carrageenan thermal hyperalgesia ([2]; intrathecal 30 μg/10 μL, 15 min pretreatment) | efficacy against sPLA2 (GV sPLA2) [%]
CCC(=O)C(=O)NCCCC(=O)OC [AX010] | did not inhibit PGE2 release | significant increase as compared to vehicle only |  |  |  |  |  |  |  |  | 
CCCCCCCCCCCCCCC(=O)C(=O)NCCCC(=O)OCC [AX048, Ethyl 4-[(2-oxohexadecanoyl)amino]butanoate] |  | significant inhibitory effect upon PGE2 synthesis and release | minimal effects | peak effects | reduced the thermal hyperalgesia | effects persisted | no different from the control | dose-dependent | 1.2 | attenuated the thermal hyperalgesia | 61.5
